Results as given in article PMC9944328 (Nature Communications, 2023).

Test system: SSTR2 mutants
Assay: SSTRs Gi-mediated cAMP inhibition, GloSensor, HEK293, 5 μM forskolin, 15 min room temperature (SSTR2 mutants)
Assay type: cell-based, human
Conditions: for Fold of WT: Gi signaling EC50
Procedure: The levels of the intracellular 3′, 5′-cyclic AMP (cAMP) were measured by the GloSensor cAMP assay (Promega) as described in the previous studies[28],[41] which has been widely used. The human full-length SSTRs and mutants were cloned into the pcDNA3.1+ vector with a HA signal sequence followed by a Flag tag at the N-terminus. HEK293 cells (ATCC, CRL-1573) were seeded into 6-well microplates at a density of 1.0 × 10^6 cells/well and cultured for 24 h at 37 °C with 5% CO2. Cells were then co-transfected with SSTR wild-type or mutants and GloSensor plasmids. After 24 h of transfection, the cells were dissociated with TrypLE™ Express Enzyme (1X) (Thermo Fisher Scientific) and collected by centrifugation at 500 × g for 5 min. Then the collected cells were suspended in Hank’s balanced salt solution [HBSS (Thermo Fisher Scientific)] supplemented with […] (YEASEN), and then the suspension cells were seeded into 96-well plates with 90 μl/well. After incubating at room temperature for 40 min, 5 μM forskolin and ligands diluted in HBSS were added to each well and the plates were incubated at room temperature for 15 min. […] were measured using the Synergy H1 microplate reader (BioTek) and the data presented are means of at least three independent experiments.

## N#Cc1cccc(-c2ccc3ncc(-c4cc(F)cc(F)c4)c(N4CCC(N)CC4)c3c2)c1O [paltusotine]
D295(7.36) substituted with a bulkier side chain, SSTR2
  Activation potency of mutant: reduced the activation potency
D295A-1 (run 1)
  Bottom (best-fit value), cAMP inhibition: -5.811
  LogEC50 (best-fit value), cAMP inhibition: -7.797
  Span (best-fit value), cAMP inhibition: 125.1
  Top (best-fit value), cAMP inhibition: 119.3
D295A-2 (run 2)
  Bottom (best-fit value), cAMP inhibition: -4.778
  LogEC50 (best-fit value), cAMP inhibition: -7.798
  Span (best-fit value), cAMP inhibition: 119.6
  Top (best-fit value), cAMP inhibition: 114.8
D295A-3 (run 3)
  Bottom (best-fit value), cAMP inhibition: -4.901
  LogEC50 (best-fit value), cAMP inhibition: -7.743
  Span (best-fit value), cAMP inhibition: 121.4
  Top (best-fit value), cAMP inhibition: 116.5
D295F, run 1
  Bottom (best-fit): -4.815
  LogEC50: -9.49
  Span (best-fit): 83.08
  Top (best-fit): 78.27
D295F, run 2
  Bottom (best-fit): -4.16
  LogEC50: -9.689
  Span (best-fit): 84.37
  Top (best-fit): 80.21
D295F, run 3
  Bottom (best-fit): 9.942
  LogEC50: -8.808
  Span (best-fit): 67.74
  Top (best-fit): 77.68
F208A-1 (run 1)
  Bottom (best-fit value): 6.193
  LogEC50 (best-fit value): -7.826
  Span (best-fit value): 90.63
  Top (best-fit value): 96.82
F208A-2 (run 2)
  Bottom (best-fit value): 3.33
  LogEC50 (best-fit value): -7.007
  Span (best-fit value): 88.37
  Top (best-fit value): 91.7
F208A-3 (run 3)
  Bottom (best-fit value): -2.358
  LogEC50 (best-fit value): -7.101
  Span (best-fit value): 89.17
  Top (best-fit value): 86.81
F265A-1 (run 1)
  Bottom (best-fit value): -8.311
  LogEC50 (best-fit value): -7.946
  Span (best-fit value): 113.6
  Top (best-fit value): 105.3
F265A-2 (run 2)
  Bottom (best-fit value): -6.152
  LogEC50 (best-fit value): -7.834
  Span (best-fit value): 121
  Top (best-fit value): 114.8
F265A-3 (run 3)
  Bottom (best-fit value): -8.585
  LogEC50 (best-fit value): -8.008
  Span (best-fit value): 129.6
  Top (best-fit value): 121
F272A-1 (run 1)
  Bottom (best-fit value): 9.906
  LogEC50 (best-fit value), cAMP inhibition: -7.753
  Span (best-fit value), cAMP inhibition: 47.19
  Top (best-fit value): 57.1
F272A-2 (run 2)
  Bottom (best-fit value): 0.969
  LogEC50 (best-fit value), cAMP inhibition: -7.573
  Span (best-fit value), cAMP inhibition: 51.72
  Top (best-fit value): 52.69
F272A-3 (run 3)
  Bottom (best-fit value): 2.026
  LogEC50 (best-fit value), cAMP inhibition: -6.838
  Span (best-fit value), cAMP inhibition: 59.81
  Top (best-fit value): 61.84
F294A-1 (run 1)
  Bottom (best-fit value), cAMP inhibition: 3.955
  LogEC50 (best-fit value), cAMP inhibition: -8.447
  Span (best-fit value), cAMP inhibition: 85.58
  Top (best-fit value), cAMP inhibition: 89.53
F294A-2 (run 2)
  Bottom (best-fit value), cAMP inhibition: -11.05
  LogEC50 (best-fit value), cAMP inhibition: -8.376
  Span (best-fit value), cAMP inhibition: 101.1
  Top (best-fit value), cAMP inhibition: 90.09
F294A-3 (run 3)
  Bottom (best-fit value), cAMP inhibition: 15.03
  LogEC50 (best-fit value), cAMP inhibition: -9.824
  Span (best-fit value), cAMP inhibition: 106.4
  Top (best-fit value), cAMP inhibition: 121.4
F294Y, run 1
  Bottom (best-fit): 11.7
  LogEC50: -9.133
  Span (best-fit): 95.55
  Top (best-fit): 107.3
F294Y, run 2
  Bottom (best-fit): 3.363
  LogEC50: -9.003
  Span (best-fit): 99.71
  Top (best-fit): 103.1
F294Y, run 3
  Bottom (best-fit): -9.817
  LogEC50: -9.17
  Span (best-fit): 128.4
  Top (best-fit): 118.6
SSTR2 D295(7.36)A
  Fold of WT: 1.30
SSTR2 F127(3.37)A
  Fold of WT: 0.54
SSTR2 F208(5.38)A
  Fold of WT: 34.16
SSTR2 F265(6.44)A
  Fold of WT: 6.35
SSTR2 F272A
  Fold of WT: 33.58
SSTR2 F294(7.35)A
  Fold of WT: 1.40
SSTR2 I130(3.40)A
  Fold of WT: 10.09
SSTR2 I195(45.52)A
  Fold of WT: 44.36
SSTR2 K291(7.32)A
  Fold of WT: 2.78
SSTR2 L99(2.60)A
  Fold of WT: 9.09
SSTR2 N276(6.55)A
  Fold of WT: 0.88
SSTR2 P220(5.50)A
  Fold of WT: 1.71
SSTR2 Q102(2.63)A
  Fold of WT: 16.51
SSTR2 T194(45.51)A
  Fold of WT: 51.98
SSTR2 V103(2.64)A
  Fold of WT: 17.54
SSTR2 W269(6.48)A
  Fold of WT: 0.23
